Test results from US10668090B2, “Liver specific delivery-based antiviral prodrug nucleoside cyclophosphate compound and uses thereof” (ZHEJIANG PALO ALTO PHARMACEUTICALS, INC, priority 2016, dated 2020).
Structures can show the parent of a compound that is named as a salt. Where two headings read alike, the source gives them in different places.

Tests used:
[1] = Formation of active molecules by in vitro metabolism with human liver microsomes; type: in vitro ADME; conditions: 25 μM, pH 7.4
Experimental: Human liver microsomes used herein were purchased from In Vitro Technologies (IVT) Inc., Batch No.: SSP X008070, a mixed liver microsome extracted from the liver tissues of 150 donors. The metabolic activity of CYP3A4 in the liver microsomes of this batch was recorded in the product description to be 1.734 nmol/mg/min (a rate of metabolizing testosterone into […]). The test compounds were synthesized by Zhejiang Paloalto Pharmaceutical Technology Co., Ltd., and dissolved in methanol to produce a 25 mM stock solution. The enzymatic reaction was carried out in 100 μL of a reaction solution (100 mM Tris-HCl, 5 mM MgCl2, pH 7.4) at a test compound concentration of 25 μM and a human liver microsome concentration of 2 mg/mL, and NADPH was added to start the reaction (with a final concentration of 2 mM). After the reaction was performed in a constant temperature shaking water bath for 5 minutes, acetonitrile was quickly added to terminate the reaction at 1.5 times the volume of the reaction mixture. The collected samples were centrifuged at a maximum speed of 13,600 rpm for 20 minutes using an Eppendorf table top centrifuge. The supernatant was collected and dried with a nitrogen evaporator, and then redissolved with mobile phase A, which was an aqueous solution containing 5 mM of ammonium acetate and 0.05% formic acid by volume. The resulting solution was subjected to quantitative analysis using LS-MS/MS (Waters, Acquity UPLC HSS T3 column).

[2] = Experimental: Male SD rats weighing 180-300 g were provided by Shanghai Sippr-BK Laboratory Animals Co., Ltd. Male animals were adapted to the environment for more than 3 days and fasted for 12 hours but without water deprivation at the night before the experiment. PA1010 (compound 4-cis), PA1007 (compound 6-cis), TAF and TDF were respectively dissolved in a normal saline to prepare their corresponding solutions. Before the administration, the animal's body weight was checked whether it met the experimental requirements. 12 rats were selected for grouping, 2 rats in each group, and were intragastrically administered with a drug solution at 30 mg/kg. Rats were euthanized with carbon dioxide gas at 0.5, 1, 3, 6, 12 and 24 h, respectively. Blood samples were collected from the heart and stored in a heparin anticoagulation tube. Then the samples were centrifuged at 4° C. and 6,000 rpm for 5 minutes, and the plasma supernatant was stored in ice. The kidney and liver tissues of the rats were collected and rinsed with normal saline pre-cooled at 4° C., and then stored in ice after water was drained. After the experiment, the samples were stored at −80° C. in a refrigerator.
The kidney and liver tissues were disrupted and mixed thoroughly in normal saline 5 times the volume of the kidney and liver tissues to obtain a tissue homogenate sample. 100 μL of the rat plasma or tissue homogenate sample was mixed uniformly with 100 μL of 10% trichloroacetic acid precipitant containing 50 ng/mL of adefovir (internal standard) and the solvent thereof was prepared by methanol and acetonitrile in a volume ratio of 50:50. The mixture was centrifuged at 4° C. and 6000 rpm for 5 minutes, and all supernatant was treated with a SPE microextraction plate (MCX μElution Plate 30 μm, Waters). Finally, the microextraction plate was eluted with a methanol solution containing 5% ammonia, and 75 μL of the obtained eluent was transferred to a 384-well sample plate for analysis with an injection volume of 1 μL.
LC-MS/MS-AJ (Triple Quad 5500, AB SCIEX) was used for sample analysis. The chromatographic conditions were shown as follows: chromatographic column: Acquity UPLC HSS T3 (2.1×50 mm, 1.8 μm); column temperature: 40° C.; flow rate: 0.5 mL/min; mobile phase A: 0.1% formic acid aqueous solution and mobile phase B: an acetonitrile solution. The mass spectrometry conditions corresponding to the internal standard were shown as follows: electrospray ionization (ESI): positive ion mode; ion pair m/z monitored by multiple reaction monitoring (MRM): 288/176 (PMPA), 274/162 (PMEA); capillary voltage: 3.0 kV; temperature: 500° C.; desolvation gas flow: 1000 L/h; scanning time: 0.025 seconds; and collision energy: 25 V.
Bar charts of the concentration of PMPA in plasma, liver and kidney corresponding to time were respectively plotted. The area (AUC0-t) under the tissue concentration-time curve of PMPA was fitted using the log-linear trapezoidal method in a non-compartmental model of WinNonLin 6.2.1 (Pharsight, CA). The ratios of liver to kidney and liver to plasma of PMPA were obtained by calculating the ratio of their corresponding AUC0-t.

[3] = rats, intragastric 30 mg/kg, 0.5-24 h, kidney
[4] = rats, intragastric 30 mg/kg, 0.5-24 h
[5] = rats, intragastric 30 mg/kg, 0.5-24 h, plasma
[6] = male, SD, rat, in vivo, po, 30 mg/kg

| Structure (SMILES) | Average rate of PMPA production in 5 minutes [1] [pmol/min/mg HLM] | Exposure (AUC0-t) of the active molecule PMPA in kidney [2, 3] [ng·h/g] | Exposure (AUC0-t) of the active molecule PMPA in liver [2, 4] [ng·h/g] | Exposure (AUC0-t) of the active molecule PMPA in plasma [2, 5] [ng·h/g] | also measured |
| --- | --- | --- | --- | --- | --- |
| C[C@H](Cn1cnc2c(N)ncnc21)OCP1(=O)OCC[C@@H](c2ccc(F)c(Cl)c2)O1 (mixture of isomers) [Compound 3, (2R)-9-{2-[(4S)-4-(3-chloro-4-fluorophenyl)-2-oxo-1,3,2-dioxaphosphorinan-2-yl]methoxypropyl}adenine] | 22.2 | – | – | – | – |
| C[C@H](Cn1cnc2c(N)ncnc21)OC[P@@]1(=O)OCC[C@@H](c2cc(F)cc(Cl)c2)O1 [Compound 6-cis, (2R)-9-{2-[(2R, 4S)-4-(3-chloro-5-fluorophenyl)-2-oxo-1,3,2-dioxaphosphorinan-2-yl]methoxypropyl}adenine] | 75.8 | 65393 | 76075 | 1272 | exposure level of PMPA in the kidney compared with TAF and TDF ([2]; rats, intragastric 30 mg/kg): significantly lower |
| C[C@H](Cn1cnc2c(N)ncnc21)OCP1(=O)OCC[C@@H](c2cc(F)cc(Cl)c2)O1 (mixture of isomers) [Compound 2, (2R)-9-{2-[(4S)-4-(3-chloro-5-fluorophenyl)-2-oxo-1,3,2-dioxaphosphorinan-2-yl]methoxypropyl}adenine] | 46.8 | – | – | – | – |
| C[C@H](Cn1cnc2c(N)ncnc21)OCP1(=O)OCC[C@@H](c2cccc(Cl)c2)O1 (mixture of isomers) [Compound 7, (2R)-9-{2-[(4S)-4-(3-chlorophenyl)-2-oxo-1,3,2-dioxaphosphorinan-2-yl]methoxypropyl}adenine, reference compound] | 27.5 | – | – | – | – |
| CC(C)OC(=O)OCOP(=O)(CO[C@H](C)Cn1cnc2c(N)ncnc21)OCOC(=O)OC(C)C [TDF, tenofovir disoproxil fumarate, reference compound] | – | 319562 | 78050 | 3097 | – |
| C[C@H](Cn1cnc2c(N)ncnc21)OCP1(=O)OCC[C@@H](c2cccc(Cl)c2F)O1 (mixture of isomers) [Compound 1, (2R)-9-{2-[(4S)-4-(3-chloro-2-fluorophenyl)-2-oxo-1,3,2-dioxaphosphorinan-2-yl]methoxypropyl}adenine] | 33.8 | – | – | – | – |
| CC(C)OC(=O)[C@H](C)N[P@](=O)(CO[C@H](C)Cn1cnc2c(N)ncnc21)Oc1ccccc1 [TAF, tenofovir alafenamide, reference compound] | – | 297233 | 148407 | 4892 | – |
| C[C@H](Cn1cnc2c(N)ncnc21)OC[P@@]1(=O)OCC[C@@H](c2cc(Cl)ccc2F)O1 [Compound 4-cis, (2R)-9-{2-[(2R, 4S)-4-(5-chloro-2-fluorophenyl)-2-oxo-1,3,2-dioxaphosphorinan-2-yl]methoxypropyl}adenine] | – | – | – | – | exposure level of PMPA in the liver, times that released from TAF ([2]; male, SD, rat, in vivo): 1.5 times; exposure level of PMPA in the liver, times that released from TDF ([2]; male, SD, rat, in vivo): 2.9 times; Liver-kidney Ratio of PMPA AUC0-t [2, 6]: 1.0; Liver-plasma Ratio of PMPA AUC0-t [2, 6]: 51.4; PMPA level in liver tissues compared with TAF and TDF at the corresponding time points ([2]; rat, in vivo): significantly higher; exposure level of PMPA in the kidney compared with TAF and TDF ([2]; rat, in vivo): significantly lower; Exposure (AUC0-t) of the active molecule PMPA in kidney ([2]; rat, in vivo, po, 30 mg/kg): 234298 ng·h/g; Exposure (AUC0-t) of the active molecule PMPA in plasma ([2]; rat, in vivo, po, 30 mg/kg): 4332 ng·h/g |
